pIC50: −log10 of the molar value.
test: Antiproliferative activity against human MDA-MB-231 cells after 96 hrs by SRB assay; format: functional, cell-based; details: MDA-MB-231, 96 h

**Q.** With `COC(=O)c1ccccc1NC(=O)c1cc2c(cc1OC)[C@@]1(C)CC[C@H](O)C(C)(C)[C@@H]1CC2` as the molecule, how does the pIC50 read?
**A.** The pIC50 was 5.10.

**Q.** With `COc1cc2c(cc1C(=O)Nc1ccc(N)cc1)CC[C@H]1C(C)(C)[C@@H](O)CC[C@]21C` as the molecule, how does the pIC50 read?
**A.** Its pIC50 is 5.51.

**Q.** With `COc1cc2c(cc1C(=O)Nc1ccccc1C)CC[C@H]1C(C)(C)[C@@H](O)CC[C@]21C` as the molecule, how does the pIC50 read?
**A.** Its pIC50 is 5.64.

**Q.** With `COC(=O)c1ccc(NC(=O)c2cc3c(cc2OC)[C@@]2(C)CC[C@H](O)C(C)(C)[C@@H]2CC3)cc1` as the molecule, how does the pIC50 read?
**A.** The pIC50 was 5.17.

**Q.** With `COc1cc2c(cc1C(=O)Oc1ccccc1)CC[C@H]1C(C)(C)[C@@H](O)CC[C@]21C` as the molecule, how does the pIC50 read?
**A.** Its pIC50 is less than 4.60.

**Q.** With `COc1cc2c(cc1C(=O)NC1CCCCC1)CC[C@H]1C(C)(C)[C@@H](O)CC[C@]21C` as the molecule, how does the pIC50 read?
**A.** The pIC50 was less than 4.60.

**Q.** With `COc1cc2c(cc1C(=O)O)CC[C@H]1C(C)(C)C(O)CC[C@]21C` (single isomer, unassigned) as the molecule, how does the pIC50 read?
**A.** Its pIC50 is less than 4.60.

**Q.** With `COc1cc2c(cc1C(=O)Nc1ccccc1N)CC[C@H]1C(C)(C)[C@@H](O)CC[C@]21C` as the molecule, how does the pIC50 read?
**A.** The pIC50 was 5.37.

**Q.** With `COc1ccccc1NC(=O)c1cc2c(cc1OC)[C@@]1(C)CC[C@H](O)C(C)(C)[C@@H]1CC2` as the molecule, how does the pIC50 read?
**A.** The pIC50 was 6.70.

**Q.** With `COc1cc2c(cc1C(=O)Nc1ccccc1Cl)CC[C@H]1C(C)(C)[C@@H](O)CC[C@]21C` as the molecule, how does the pIC50 read?
**A.** Its pIC50 is 5.43.

**Q.** With `CC1(C)[C@@H](O)CC[C@]2(C)c3cc(O)c(C(=O)Nc4ccc(F)cc4)cc3CC[C@@H]12` as the molecule, how does the pIC50 read?
**A.** The pIC50 was 5.03.

**Q.** With `COc1ccc(N(C)C(=O)c2cc3c(cc2OC)[C@@]2(C)CC[C@H](O)C(C)(C)[C@@H]2CC3)cc1` as the molecule, how does the pIC50 read?
**A.** Its pIC50 is less than 4.60.

**Q.** With `CCNC(=O)c1cc2c(cc1OC)[C@@]1(C)CC[C@H](O)C(C)(C)[C@@H]1CC2` as the molecule, how does the pIC50 read?
**A.** Its pIC50 is 5.12.

test: Antiproliferative activity against human MCF7 cells after 96 hrs by SRB assay; format: functional, cell-based; details: MCF7, 96 h

**Q.** With `COC(=O)c1ccccc1NC(=O)c1cc2c(cc1OC)[C@@]1(C)CC[C@H](O)C(C)(C)[C@@H]1CC2` as the molecule, how does the pIC50 read?
**A.** Its pIC50 is 5.37.

**Q.** With `COc1cc2c(cc1C(=O)Nc1ccc(N)cc1)CC[C@H]1C(C)(C)[C@@H](O)CC[C@]21C` as the molecule, how does the pIC50 read?
**A.** The pIC50 was 5.28.

**Q.** With `COc1cc2c(cc1C(=O)Nc1ccccc1C)CC[C@H]1C(C)(C)[C@@H](O)CC[C@]21C` as the molecule, how does the pIC50 read?
**A.** Its pIC50 is 5.45.

**Q.** With `COC(=O)c1ccc(NC(=O)c2cc3c(cc2OC)[C@@]2(C)CC[C@H](O)C(C)(C)[C@@H]2CC3)cc1` as the molecule, how does the pIC50 read?
**A.** The pIC50 was 5.34.

**Q.** With `COc1cc2c(cc1C(=O)Oc1ccccc1)CC[C@H]1C(C)(C)[C@@H](O)CC[C@]21C` as the molecule, how does the pIC50 read?
**A.** Its pIC50 is less than 4.60.

**Q.** With `COc1cc2c(cc1C(=O)NC1CCCCC1)CC[C@H]1C(C)(C)[C@@H](O)CC[C@]21C` as the molecule, how does the pIC50 read?
**A.** Its pIC50 is less than 4.60.

**Q.** With `COc1cc2c(cc1C(=O)O)CC[C@H]1C(C)(C)C(O)CC[C@]21C` (single isomer, unassigned) as the molecule, how does the pIC50 read?
**A.** Its pIC50 is less than 4.60.

**Q.** With `COc1cc2c(cc1C(=O)Nc1ccccc1N)CC[C@H]1C(C)(C)[C@@H](O)CC[C@]21C` as the molecule, how does the pIC50 read?
**A.** The pIC50 was 4.95.

**Q.** With `COc1ccccc1NC(=O)c1cc2c(cc1OC)[C@@]1(C)CC[C@H](O)C(C)(C)[C@@H]1CC2` as the molecule, how does the pIC50 read?
**A.** Its pIC50 is 5.71.

**Q.** With `COc1cc2c(cc1C(=O)Nc1ccccc1Cl)CC[C@H]1C(C)(C)[C@@H](O)CC[C@]21C` as the molecule, how does the pIC50 read?
**A.** The pIC50 was 5.18.

**Q.** With `CC1(C)[C@@H](O)CC[C@]2(C)c3cc(O)c(C(=O)Nc4ccc(F)cc4)cc3CC[C@@H]12` as the molecule, how does the pIC50 read?
**A.** The pIC50 was 5.22.

**Q.** With `COc1ccc(N(C)C(=O)c2cc3c(cc2OC)[C@@]2(C)CC[C@H](O)C(C)(C)[C@@H]2CC3)cc1` as the molecule, how does the pIC50 read?
**A.** Its pIC50 is less than 4.60.

**Q.** With `CCNC(=O)c1cc2c(cc1OC)[C@@]1(C)CC[C@H](O)C(C)(C)[C@@H]1CC2` as the molecule, how does the pIC50 read?
**A.** Its pIC50 is less than 4.60.

test: Antiproliferative activity against human T47D cells after 96 hrs by SRB assay; format: functional, cell-based; details: not given

**Q.** With `COC(=O)c1ccccc1NC(=O)c1cc2c(cc1OC)[C@@]1(C)CC[C@H](O)C(C)(C)[C@@H]1CC2` as the molecule, how does the pIC50 read?
**A.** The pIC50 was 5.91.

**Q.** With `COc1cc2c(cc1C(=O)Nc1ccc(N)cc1)CC[C@H]1C(C)(C)[C@@H](O)CC[C@]21C` as the molecule, how does the pIC50 read?
**A.** Its pIC50 is 6.64.

**Q.** With `COc1cc2c(cc1C(=O)Nc1ccccc1C)CC[C@H]1C(C)(C)[C@@H](O)CC[C@]21C` as the molecule, how does the pIC50 read?
**A.** The pIC50 was 6.29.

**Q.** With `COC(=O)c1ccc(NC(=O)c2cc3c(cc2OC)[C@@]2(C)CC[C@H](O)C(C)(C)[C@@H]2CC3)cc1` as the molecule, how does the pIC50 read?
**A.** The pIC50 was 5.57.

**Q.** With `COc1cc2c(cc1C(=O)Oc1ccccc1)CC[C@H]1C(C)(C)[C@@H](O)CC[C@]21C` as the molecule, how does the pIC50 read?
**A.** Its pIC50 is less than 4.60.

**Q.** With `COc1cc2c(cc1C(=O)NC1CCCCC1)CC[C@H]1C(C)(C)[C@@H](O)CC[C@]21C` as the molecule, how does the pIC50 read?
**A.** The pIC50 was 4.96.

**Q.** With `COc1cc2c(cc1C(=O)O)CC[C@H]1C(C)(C)C(O)CC[C@]21C` (single isomer, unassigned) as the molecule, how does the pIC50 read?
**A.** The pIC50 was less than 4.60.

**Q.** With `COc1cc2c(cc1C(=O)Nc1ccccc1N)CC[C@H]1C(C)(C)[C@@H](O)CC[C@]21C` as the molecule, how does the pIC50 read?
**A.** The pIC50 was 6.26.

**Q.** With `COc1ccccc1NC(=O)c1cc2c(cc1OC)[C@@]1(C)CC[C@H](O)C(C)(C)[C@@H]1CC2` as the molecule, how does the pIC50 read?
**A.** The pIC50 was 7.52.

**Q.** With `COc1cc2c(cc1C(=O)Nc1ccccc1Cl)CC[C@H]1C(C)(C)[C@@H](O)CC[C@]21C` as the molecule, how does the pIC50 read?
**A.** The pIC50 was 6.09.

**Q.** With `CC1(C)[C@@H](O)CC[C@]2(C)c3cc(O)c(C(=O)Nc4ccc(F)cc4)cc3CC[C@@H]12` as the molecule, how does the pIC50 read?
**A.** The pIC50 was 5.59.

**Q.** With `COc1ccc(N(C)C(=O)c2cc3c(cc2OC)[C@@]2(C)CC[C@H](O)C(C)(C)[C@@H]2CC3)cc1` as the molecule, how does the pIC50 read?
**A.** The pIC50 was 4.89.

**Q.** With `CCNC(=O)c1cc2c(cc1OC)[C@@]1(C)CC[C@H](O)C(C)(C)[C@@H]1CC2` as the molecule, how does the pIC50 read?
**A.** The pIC50 was less than 4.60.
